Measured values reported in patent US10245239B2, “Astaxanthin anti-inflammatory synergistic combinations” (Lycored Ltd., priority 2013, dated 2019).

Experiments:
[1] = system: LPS-stimulated macrophages; assay: NO production by LPS-stimulated macrophages; type: cell-based, ICR mice; details: astaxanthin alone, FIG. 1
Protocol: (§1) 100 U/ml penicillin. […] streptomycin (Beit-Haemek, Israel).
(§2) The anti-inflammatory effect was detected by inhibition of NO production and of TNF alpha production by LPS-stimulated macrophages.
NO levels in supernatants of cell cultures were determined by assaying nitrite levels using Griess reagent and sodium nitrite as a standard.

[2] = system: LPS-stimulated macrophages; assay: TNF-alpha production by LPS-stimulated macrophages (ELISA); type: cell-based, ICR mice; details: astaxanthin alone, FIG. 3
Protocol: as §1
Concentrations of TNF-alpha in cell culture supernatants were quantified by ELISA kits (Biolegend, SanDiego, Calif., USA).
as §2

CC1=C(/C=C/C(C)=C/C=C/C(C)=C/C=C/C=C(C)/C=C/C=C(C)/C=C/C2=C(C)C(=O)[C@@H](O)CC2(C)C)C(C)(C)C[C@H](O)C1=O [astaxanthin] was tested, and the “inhibition of NO production” value [1] was “in a dose dependent manner” and the “inhibition of TNF alpha production” value [2] was “in a dose dependent manner”.
